According to US8394952B2 (Vertex Pharmaceuticals Incorporated, priority 2006, dated 2013):

Biological target: Plk1 (Homo sapiens, UniProt P53350)
Test: biochemical

Sequence of Plk1 (P53350 20-338): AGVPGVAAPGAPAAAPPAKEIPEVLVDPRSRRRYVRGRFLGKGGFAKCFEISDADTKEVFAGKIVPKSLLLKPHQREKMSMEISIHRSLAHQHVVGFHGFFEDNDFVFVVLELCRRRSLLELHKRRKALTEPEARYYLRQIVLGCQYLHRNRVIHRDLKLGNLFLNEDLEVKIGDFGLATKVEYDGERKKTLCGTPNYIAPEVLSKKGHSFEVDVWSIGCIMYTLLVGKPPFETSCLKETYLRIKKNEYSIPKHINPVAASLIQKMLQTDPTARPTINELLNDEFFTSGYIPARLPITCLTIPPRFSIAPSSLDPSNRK

SMILES	Ki
COc1cc(C(=O)NCCC(F)(F)F)ccc1Nc1ncc2c(n1)N(C1CCCC1)CC(C)(C)C(=O)N2C [Compound I-132, 4-(9-cyclopentyl-6,7,8,9-tetrahydro-5,7,7-trimethyl-6-oxo-5H-pyrimido[4,5-b][1,4]diazepin-2-ylamino)-N-(3,3,3-trifluoropropyl)-3-methoxybenzamide]	< 10 nM
COc1cc(C(=O)NC2CCCCC2)ccc1Nc1ncc2c(n1)N(C1CCCC1)CC(C)(C)C(=O)N2C [Compound I-133, 4-(9-cyclopentyl-6,7,8,9-tetrahydro-5,7,7-trimethyl-6-oxo-5H-pyrimido[4,5-b][1,4]diazepin-2-ylamino)-N-cyclohexyl-3-methoxybenzamide]	< 10 nM
COc1cc(C(=O)NC2CCOCC2)ccc1Nc1ncc2c(n1)N(C1CCCC1)CC(C)(C)C(=O)N2C [Compound I-134, 4-(9-cyclopentyl-6,7,8,9-tetrahydro-5,7,7-trimethyl-6-oxo-5H-pyrimido[4,5-b][1,4]diazepin-2-ylamino)-N-(tetrahydro-2H-pyran-4-yl)-3-methoxybenzamide]	< 10 nM
CCOc1cc(C(=O)NC2CCN(C(C)C)CC2)ccc1Nc1ncc2c(n1)N(C1CCCC1)CC(C)(C)C(=O)N2C [Compound I-135, 4-(9-cyclopentyl-6,7,8,9-tetrahydro-5,7,7-trimethyl-6-oxo-5H-pyrimido[4,5-b][1,4]diazepin-2-ylamino)-3-ethoxy-N-(1-isopropylpiperidin-4-yl)benzamide]	< 10 nM
COc1cc(C(=O)NC(C)(CO)CO)ccc1Nc1ncc2c(n1)N(C1CCCC1)CC(C)(C)C(=O)N2C [Compound I-136, 4-(9-cyclopentyl-6,7,8,9-tetrahydro-5,7,7-trimethyl-6-oxo-5H-pyrimido[4,5-b][1,4]diazepin-2-ylamino)-N-(1,3-dihydroxy-2-methylpropan-2-yl)-3-methoxybenzamide]	< 10 nM
CN1C(=O)C(C)(C)CN(C2CCCC2)c2nc(Nc3cccc(-c4cc[nH]n4)c3)ncc21 [Compound I-137, 2-(3-(1H-pyrazol-3-yl)phenylamino)-9-cyclopentyl-8,9-dihydro-5,7,7-trimethyl-5H-pyrimido[4,5-b][1,4]diazepin-6(7H)-one]	10 to 100 nM
CN1C(=O)C(C)(C)CN(C2CCCC2)c2nc(Nc3ccc4c(c3)CCN4S(C)(=O)=O)ncc21 [Compound I-138, 9-Cyclopentyl-2-(1-methanesulfonyl-2,3-dihydro-1H-indol-5-ylamino)-5,7,7-trimethyl-5,7,8,9-tetrahydro-pyrimido[4,5-b][1,4]diazepin-6-one]	10 to 100 nM
CN1C(=O)C(C)(C)CN(C2CCCC2)c2nc(Nc3ccc4c(c3)C(=O)C(=O)N4)ncc21 [Compound I-139, 5-(9-Cyclopentyl-6,7,8,9-tetrahydro-5,7,7-trimethyl-6-oxo-5H-pyrimido[4,5-b][1,4]diazepin-2-ylamino)indoline-2,3-dione]	10 to 100 nM
CN1C(=O)C(C)(C)CN(C2CCCC2)c2nc(Nc3cccc(-c4cccnc4)c3)ncc21 [Compound I-153, 2-(3-(pyridin-3-yl)phenylamino)-9-cyclopentyl-8,9-dihydro-5,7,7-trimethyl-5H-pyrimido[4,5-b][1,4]diazepin-6(7H)-one]	10 to 100 nM
CN1C(=O)C(C)(C)CN(C2CCCC2)c2nc(Nc3cccc(NC(=O)c4ccccc4)c3)ncc21 [Compound I-154, N-(3-(9-cyclopentyl-6,7,8,9-tetrahydro-5,7,7-trimethyl-6-oxo-5H-pyrimido[4,5-b][1,4]diazepin-2-ylamino)phenyl)benzamide]	10 to 100 nM
COc1ccc(NC(C)=O)cc1Nc1ncc2c(n1)N(C1CCCC1)CC(C)(C)C(=O)N2C [Compound I-158, N-(3-(9-cyclopentyl-6,7,8,9-tetrahydro-5,7,7-trimethyl-6-oxo-5H-pyrimido[4,5-b][1,4]diazepin-2-ylamino)-4-methoxyphenyl)acetamide]	< 10 nM
CNC(=O)c1ccc(Nc2ncc3c(n2)N(CC(F)(F)C(F)(F)F)CC(C)(C)C(=O)N3C)c(OC)c1 [Compound I-160, 4-(9-(2,2,3,3,3-pentafluoropropyl)-6,7,8,9-tetrahydro-5,7,7-trimethyl-6-oxo-5H-pyrimido[4,5-b][1,4]diazepin-2-ylamino)-3-methoxy-N-methylbenzamide]	10 to 100 nM
CNC(=O)c1ccc(Nc2ncc3c(n2)N(c2cccc(Cl)c2)CC(C)(C)C(=O)N3C)c(OC)c1 [Compound I-161, 4-(9-(3-chlorophenyl)-6,7,8,9-tetrahydro-5,7,7-trimethyl-6-oxo-5H-pyrimido[4,5-b][1,4]diazepin-2-ylamino)-3-methoxy-N-methylbenzamide]	10 to 100 nM
CC(=O)Nc1ccc(C)c(Nc2ncc3c(n2)N(C2CCCC2)CC(C)(C)C(=O)N3C)c1 [Compound I-163, N-(3-(9-cyclopentyl-6,7,8,9-tetrahydro-5,7,7-trimethyl-6-oxo-5H-pyrimido[4,5-b][1,4]diazepin-2-ylamino)-4-methylphenyl)acetamide]	< 10 nM
CC(=O)Nc1c(F)ccc(Nc2ncc3c(n2)N(C2CCCC2)CC(C)(C)C(=O)N3C)c1F [Compound I-165, N-(3-(9-cyclopentyl-6,7,8,9-tetrahydro-5,7,7-trimethyl-6-oxo-5H-pyrimido[4,5-b][1,4]diazepin-2-ylamino)-2,6-difluorophenyl)acetamide]	10 to 100 nM

Continued, values first:

Ki	SMILES
10 to 100 nM	CN1C(=O)C(C)(C)CN(C2CCCC2)c2nc(Nc3cccc(C(=O)NC4CCOCC4)c3)ncc21 [Compound I-141, 3-(9-Cyclopentyl-6,7,8,9-tetrahydro-5,7,7-trimethyl-6-oxo-5H-pyrimido[4,5-b][1,4]diazepin-2-ylamino)-N-(tetrahydro-2H-pyran-4-yl)benzamide]
10 to 100 nM	CN1C(=O)C(C)(C)CN(C2CCCC2)c2nc(Nc3cccc(C(=O)NC4CN(C(=O)OC(C)(C)C)C4)c3)ncc21 [Compound I-143, 3-[3-(9-Cyclopentyl-5,7,7-trimethyl-6-oxo-6,7,8,9-tetrahydro-5H-pyrimido[4,5-b][1,4]diazepin-2-ylamino)-benzoylamino]-azetidine-1-carboxylic acid tert-butyl ester]
10 to 100 nM	COCCNC(=O)c1cccc(Nc2ncc3c(n2)N(C2CCCC2)CC(C)(C)C(=O)N3C)c1 [Compound I-144, 3-(9-Cyclopentyl-6,7,8,9-tetrahydro-5,7,7-trimethyl-6-oxo-5H-pyrimido[4,5-b][1,4]diazepin-2-ylamino)-N-(2-methoxyethyl)benzamide]
10 to 100 nM	CN1C(=O)C(C)(C)CN(C2CCCC2)c2nc(Nc3cccc(NC(=O)CC(F)(F)F)c3)ncc21 [Compound I-145]
10 to 100 nM	COCC(=O)Nc1cccc(Nc2ncc3c(n2)N(C2CCCC2)CC(C)(C)C(=O)N3C)c1 [Compound I-147, N-(3-(9-Cyclopentyl-6,7,8,9-tetrahydro-5,7,7-trimethyl-6-oxo-5H-pyrimido[4,5-b][1,4]diazepin-2-ylamino)phenyl)-2-methoxyacetamide]
10 to 100 nM	CN1C(=O)C(C)(C)CN(C2CCCC2)c2nc(Nc3cccc(N4CCCC4=O)c3)ncc21 [Compound I-149, 2-(3-(2-oxopyrrolidin-1-yl)phenylamino)-9-cyclopentyl-8,9-dihydro-5,7,7-trimethyl-5H-pyrimido[4,5-b][1,4]diazepin-6(7H)-one]
10 to 100 nM	CN1C(=O)C(C)(C)CN(C2CCCC2)c2nc(Nc3cccc(NS(C)(=O)=O)c3)ncc21 [Compound I-150, N-[3-(9-cyclopentyl-5,7,7-trimethyl-6-oxo-6,7,8,9-tetrahydro-5H-pyrimido[4,5-b][1,4]diazepin-2-ylamino)-phenyl]-methanesulfonamide]
10 to 100 nM	CN1C(=O)C(C)(C)CN(C2CCCC2)c2nc(Nc3cccc(NC(=O)C4CCC4)c3)ncc21 [Compound I-151, N-(3-(9-cyclopentyl-6,7,8,9-tetrahydro-5,7,7-trimethyl-6-oxo-5H-pyrimido[4,5-b][1,4]diazepin-2-ylamino)phenyl)cyclobutanecarboxamide]
10 to 100 nM	CN1C(=O)C(C)(C)CN(C2CCCC2)c2nc(Nc3cccc(C(=O)N4CC(F)(C5CC5)C4)c3)ncc21 [Compound I-152, 9-Cyclopentyl-2-[3-(3-cyclopropyl-3-fluoro-azetidine-1-carbonyl)-phenylamino]-5,7,7-trimethyl-5,7,8,9-tetrahydro-pyrimido[4,5-b][1,4]diazepin-6-one]
10 to 100 nM	COC(=O)Nc1cccc(Nc2ncc3c(n2)N(C2CCCC2)CC(C)(C)C(=O)N3C)c1 [Compound I-155]
10 to 100 nM	CN1C(=O)C(C)(C)CN(C2CCCC2)c2nc(Nc3cccc(C(=O)NC4CNC4)c3)ncc21 [Compound I-156, 3-(9-cyclopentyl-6,7,8,9-tetrahydro-5,7,7-trimethyl-6-oxo-5H-pyrimido[4,5-b][1,4]diazepin-2-ylamino)-N-(azetidin-3-yl)benzamide]
< 10 nM	CN1CCC(C(=O)Nc2cccc(Nc3ncc4c(n3)N(C3CCCC3)CC(C)(C)C(=O)N4C)c2)CC1 [Compound I-157, N-(3-(9-cyclopentyl-6,7,8,9-tetrahydro-5,7,7-trimethyl-6-oxo-5H-pyrimido[4,5-b][1,4]diazepin-2-ylamino)phenyl)-1-methylpiperidine-4-carboxamide]
10 to 100 nM	CN1C(=O)C(C)(C)CN(C2CCCC2)c2nc(Nc3cccc(C(=O)NC4CC4)c3)ncc21 [Compound I-159, 3-(9-cyclopentyl-6,7,8,9-tetrahydro-5,7,7-trimethyl-6-oxo-5H-pyrimido[4,5-b][1,4]diazepin-2-ylamino)-N-cyclopropylbenzamide]
10 to 100 nM	CC(=O)Nc1cc(Nc2ncc3c(n2)N(C2CCCC2)CC(C)(C)C(=O)N3C)ccc1C [Compound I-162, N-(5-(9-cyclopentyl-6,7,8,9-tetrahydro-5,7,7-trimethyl-6-oxo-5H-pyrimido[4,5-b][1,4]diazepin-2-ylamino)-2-methylphenyl)acetamide]
10 to 100 nM	CN1C(=O)C(C)(C)CN(C2CCCC2)c2nc(Nc3cccc(NC(=O)N4CCCCC4)c3)ncc21 [Compound I-164, N-(3-(9-cyclopentyl-6,7,8,9-tetrahydro-5,7,7-trimethyl-6-oxo-5H-pyrimido[4,5-b][1,4]diazepin-2-ylamino)phenyl)piperidine-1-carboxamide]
